Test results as given in the Kinase Knowledgebase extract (Sharma et al. 2016).

The compounds below were run against PIK3CG (human) (UniProt P48736) (assay: Inhibition of PIK3CG Kinase Activity).
Chain of PIK3CG (human) (P48736 whole entry, looked up): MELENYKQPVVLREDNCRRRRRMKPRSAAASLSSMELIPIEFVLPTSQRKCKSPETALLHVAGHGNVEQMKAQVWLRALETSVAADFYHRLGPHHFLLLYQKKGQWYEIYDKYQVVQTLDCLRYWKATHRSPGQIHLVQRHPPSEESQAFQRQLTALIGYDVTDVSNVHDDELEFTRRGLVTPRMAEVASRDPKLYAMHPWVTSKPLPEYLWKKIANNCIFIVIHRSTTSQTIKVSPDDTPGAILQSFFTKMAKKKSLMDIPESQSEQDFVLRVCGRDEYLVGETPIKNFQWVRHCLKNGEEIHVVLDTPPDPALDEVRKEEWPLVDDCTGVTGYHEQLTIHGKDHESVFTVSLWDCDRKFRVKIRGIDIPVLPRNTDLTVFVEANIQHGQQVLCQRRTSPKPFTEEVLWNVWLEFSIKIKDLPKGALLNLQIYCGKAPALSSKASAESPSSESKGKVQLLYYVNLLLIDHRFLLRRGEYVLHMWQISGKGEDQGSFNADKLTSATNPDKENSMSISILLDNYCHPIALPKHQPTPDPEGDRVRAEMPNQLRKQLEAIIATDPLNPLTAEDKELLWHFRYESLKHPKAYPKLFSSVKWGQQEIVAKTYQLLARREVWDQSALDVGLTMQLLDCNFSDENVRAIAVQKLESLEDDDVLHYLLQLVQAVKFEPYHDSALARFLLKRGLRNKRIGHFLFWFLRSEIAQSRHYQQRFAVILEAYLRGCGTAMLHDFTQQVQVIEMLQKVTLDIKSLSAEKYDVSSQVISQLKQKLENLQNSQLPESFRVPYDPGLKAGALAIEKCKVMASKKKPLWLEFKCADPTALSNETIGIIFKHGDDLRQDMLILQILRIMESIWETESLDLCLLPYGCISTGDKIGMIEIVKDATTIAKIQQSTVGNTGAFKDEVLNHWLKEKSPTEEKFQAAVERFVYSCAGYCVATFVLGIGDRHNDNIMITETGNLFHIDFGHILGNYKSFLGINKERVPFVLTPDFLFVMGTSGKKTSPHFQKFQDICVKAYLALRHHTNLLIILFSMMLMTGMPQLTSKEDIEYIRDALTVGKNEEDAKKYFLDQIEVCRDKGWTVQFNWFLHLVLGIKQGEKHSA

| Ki | SMILES |
| --- | --- |
| < 100 nM | CCn1cc(N2C(=O)c3ccc(-c4cnc(OC)c(OC)c4)nc3[C@@H]2C)cn1 |
| < 100 nM | CNC(=O)c1cncc(-c2cc(C)c3c(n2)C(C)(C)N(c2cnn(CC(F)(F)F)c2)C3=O)c1 |
| < 100 nM | Cc1cc(-c2cncc(OC(F)F)c2)nc2c1C(=O)N(c1cnn(CC(F)(F)F)c1)C2(C)O (stereo unspecified) |
| < 100 nM | COc1cc(-c2cc(C)c3c(n2)CN(c2cncc(OCCO)c2)C3=O)cnc1OC |
| < 100 nM | COc1cc(-c2cc(C)c3c(n2)CN(c2cnn(CC(F)F)c2)C3=O)cnc1OC |
| < 100 nM | COc1cncc(-c2cc(C)c3c(n2)[C@H](OC)N(c2cnn(CC(F)(F)F)c2)C3=O)c1 |
| < 100 nM | COc1cc(-c2cc(C)c3c(c2)CN(c2cnn(CC(F)(F)F)c2)C3=O)cnc1OC |
| < 100 nM | COc1cc(-c2cc(N(C)C)c3c(n2)CN(c2cnn(CC#N)c2)C3=O)cnc1OC |
| < 100 nM | CCn1ccc(N2Cc3cc(-c4cnc(OC)c(OC)c4)ccc3C2=O)n1 |
| < 100 nM | COc1cncc(N2Cc3nc(-c4cnc(OC)c(OC)c4)cc(C)c3C2=O)c1 |
| < 100 nM | Cc1cc(-c2cncc(OCC(F)F)c2)nc2c1C(=O)N(c1cnn(CC(F)(F)F)c1)[C@@H]2C |
| < 100 nM | Cc1cc(-c2cncc(OC(F)F)c2)nc2c1C(=O)N(c1cn[nH]c1)[C@@H]2C |
| < 100 nM | COc1cncc(-c2cc(C)c3c(n2)[C@@H](OC)N(c2cnn(CC(F)(F)F)c2)C3=O)c1 |
| < 100 nM | C#CCn1cc(N2Cc3cc(-c4cnc(OC)c(OC)c4)ccc3C2=O)cn1 |
| < 100 nM | Cc1cc(-c2cncc(OC(F)F)c2)nc2c1C(=O)N(c1cn[nH]c1)C2C (stereo unspecified) |
| < 100 nM | COc1cc(-c2cc(C)c3c(n2)CN(c2ccc(OCC(F)(F)F)nc2)C3=O)cnc1OC |
| < 100 nM | CCc1cncc(-c2cc(C)c3c(n2)C(C)(C)N(c2cnn(CC(F)(F)F)c2)C3=O)c1 |
| 100 to 490 nM | COc1cc(-c2ccc3c(n2)CN(c2ccc(N(C)CC4CCCO4)nc2)C3=O)cnc1OC (stereo unspecified) |
| < 100 nM | COc1ncc(-c2cc(C)c3c(n2)C(C)(C)N(c2cnn(C(C)(C)C#N)c2)C3=O)cc1OCC(F)F |
| < 100 nM | COc1cc(-c2cc(C)c3c(n2)CN(c2csc(CO)c2)C3=O)cnc1OC |
| < 100 nM | COc1cc(-c2ccc3c(n2)CN(c2cnn(C(C)(C)C#N)c2)C3=O)cnc1OC(F)F |
| < 100 nM | COc1ncc(-c2cc(C)c3c(n2)CN(c2cnn(C(C)(C)C#N)c2)C3=O)cc1OCC(F)(F)F |
| < 100 nM | Cc1cc(-c2cncc(OC(F)F)c2)nc2c1C(=O)N(c1cnn(CC(F)(F)F)c1)C21CC1 |
| 100 to 490 nM | COc1cc(-c2ccc3c(c2)CN(c2cnn(CC#N)c2)C3=O)cnc1Cl |

| Ki | SMILES |
| --- | --- |
| < 100 nM | COCCNC(=O)c1cncc(-c2cc(C)c3c(n2)C(C)(C)N(c2cnn(CC(F)(F)F)c2)C3=O)c1 |
| < 100 nM | COc1cc(-c2cc(C)c3c(n2)[C@@H](C)N(c2cnn(CC(F)(F)F)c2)C3=O)cnc1C |
| < 100 nM | COc1cc(-c2ccc3c(c2)CN(c2cn(C)nn2)C3=O)cnc1OC |
| < 100 nM | CCOc1ncc(-c2cc(C)c3c(n2)C(OC)N(c2cnn(CC(F)(F)F)c2)C3=O)cc1OC (stereo unspecified) |
| 100 to 490 nM | COc1cc(-c2ccc3c(c2)CN(c2cccnc2)C3=O)cnc1OC |
| < 100 nM | COc1cc(-c2cc(C)c3c(n2)CN(c2cnn(CC(F)(F)F)c2)C3=O)cnc1O |
| < 100 nM | Cc1cc(-c2cncc(S(C)(=O)=O)c2)nc2c1C(=O)N(c1cnn(CC(F)(F)F)c1)C2C (stereo unspecified) |
| < 100 nM | COc1cc(-c2cc(C)c3c(n2)CN(c2ccn([C@H]4CCOC4)n2)C3=O)cnc1F |
| 100 to 490 nM | CCN(CC)CCn1cc(N2Cc3nc(-c4cnc(OC)c(OC)c4)ccc3C2=O)cn1 |
| < 100 nM | Cc1cc(-c2cncc(N)c2)nc2c1C(=O)N(c1cnn(CC(F)(F)F)c1)C2(C)C |
| 100 to 490 nM | O=C1c2ccc(-c3cncc(OC(F)F)c3)nc2CN1c1cc[nH]n1 |
| < 100 nM | COc1cc(-c2ccc3c(n2)C(C)N(c2cccc(C(O)C(F)(F)F)n2)C3=O)cnc1OC (stereo unspecified) |
| < 100 nM | CCn1ccc(N2C(=O)c3c(C)cc(-c4cncc(OC(F)F)c4)nc3[C@H]2C)n1 |
| < 100 nM | Cc1cc(-c2cncc(OCC(F)(F)F)c2)nc2c1C(=O)N(c1cnn(CC(F)F)c1)C2 |
| < 100 nM | COc1ncc(-c2cc(C)c3c(n2)C(C)(C)N(c2cnn(CC(F)(F)F)c2)C3=O)cc1C(=O)NCC#N |
| < 100 nM | COc1cncc(-c2cc(C)c3c(n2)C(C)N(c2csc(C)n2)C3=O)c1 (stereo unspecified) |
| < 100 nM | COc1cc(-c2cc(C)c3c(n2)CN(c2ccn(C(F)F)c(=O)c2)C3=O)cnc1OC |
| < 100 nM | Cc1cc(-c2cncc(OC(F)F)c2)nc2c1C(=O)N(c1ccnc(F)c1)C2C (stereo unspecified) |
| < 100 nM | COc1cc(-c2ccc3c(n2)CN(c2cnn(CC4(C)COC4)c2)C3=O)cnc1OC |
| < 100 nM | COc1cc(-c2ccc3c(n2)CN(c2cnn(Cc4ccc(CO)cc4)c2)C3=O)cnc1OC |
| 100 to 490 nM | COc1cc(-c2ccc3c(c2)CN(c2cscn2)C3=O)cnc1OC |
| < 100 nM | COc1ncc(-c2cc(C)c3c(n2)C(C)N(c2cnn(CC(F)(F)F)c2)C3=O)cc1OC(F)F (stereo unspecified) |
| < 100 nM | COc1cc(-c2ccc3c(n2)CN(c2ccc(=O)n(CC4COCCO4)c2)C3=O)cnc1OC (stereo unspecified) |
| < 100 nM | COc1cc(OC)c(-c2cc(C)c3c(n2)CN(c2cnn(CC(F)(F)F)c2)C3=O)cn1 |

| Ki | SMILES |
| --- | --- |
| < 100 nM | CCOc1ncc(-c2cc(C)c3c(n2)C(OC(C)C)N(c2cnn(CC(F)(F)F)c2)C3=O)cc1OC (stereo unspecified) |
| < 100 nM | CCOc1cc(-c2ccc3c(n2)CN(c2cnn(CC#N)c2)C3=O)cnc1OC |
| < 100 nM | COc1ccc(-c2cc(C)c3c(c2)CN(c2cnn(CC(F)(F)F)c2)C3=O)cc1OC |
| < 100 nM | COc1cc(-c2ccc3c(n2)CN(c2cncs2)C3=O)cnc1OC |
| < 100 nM | COc1cc(-c2cc(C)c3c(n2)CN(c2cncnc2)C3=O)cnc1OC |
| < 100 nM | COc1cc(-c2cc(C)c3c(n2)C(C)(C)N(c2cnn(CC(F)F)c2)C3=O)cnc1C |
| < 100 nM | COc1ncc(-c2cc(C)c3c(n2)CN(c2cnn(CC(F)(F)F)c2)C3=O)cc1CO |
| < 100 nM | Cc1cc(-c2ccc(N)nc2)nc2c1C(=O)N(c1cnn(CC(F)(F)F)c1)C2 |
| < 100 nM | COc1ncc(-c2cc(C)c3c(n2)CN(c2cnn(C)c2)C3=O)cc1OC(F)F |
| < 100 nM | COc1cc(-c2ccc3c(n2)[C@H](C)N(c2ccn(C[C@H](C)O)n2)C3=O)cnc1OC |
| 100 to 490 nM | COCCn1cc(N2Cc3nc(-c4cnc(OC)c(OC)c4)ccc3C2=O)ccc1=O |
| < 100 nM | COc1cc(-c2ccc3c(n2)CN(c2ccc(N4CCC(C#N)CC4)nc2)C3=O)cnc1OC |
| < 100 nM | COc1cc(-c2ccc3c(n2)CN(c2cnn(Cc4cc(C)no4)c2)C3=O)cnc1OC |
| 100 to 490 nM | COc1cc(-c2ccc3c(n2)CN(c2cnn(CCN4CCC(C#N)CC4)c2)C3=O)cnc1OC |
| < 100 nM | CCOc1cncc(-c2cc(C)c3c(n2)CN(c2cnn(CC(F)(F)F)c2)C3=O)c1 |
| < 100 nM | Cc1cc(-c2ccc(Cl)c(O)c2)nc2c1C(=O)N(c1cnn(CC(F)(F)F)c1)C2 |
| < 100 nM | COc1cc(-c2ccc3c(n2)CN(c2cn(CC(F)(F)F)cn2)C3=O)cnc1OC |
| < 100 nM | COc1ncc(-c2cc(C)c3c(n2)CN(c2cnn(CC(F)(F)F)c2)C3=O)cc1OC1CCOCC1 |
| 100 to 490 nM | N#CCn1cc(N2Cc3cc(-c4cnc5ccccc5c4)ccc3C2=O)cn1 |
| < 100 nM | COc1cc(-c2cc(C)c3c(n2)CN(c2cncc(CN(C)C)c2)C3=O)cnc1OC |
| < 100 nM | Cc1cc(-c2cncc(C(=O)O)c2)nc2c1C(=O)N(c1cnn(CC(F)(F)F)c1)C2(C)C |
| < 100 nM | COc1cncc(-c2cc(C)c3c(n2)C(C)N(c2ccn(CC(C)(C)O)n2)C3=O)c1 (stereo unspecified) |
| < 100 nM | COc1cc(-c2ccc3c(n2)C(C)N(c2ccn(C)n2)C3=O)cnc1OC (stereo unspecified) |
| < 100 nM | C#CCNC(=O)c1cc(-c2cc(C)c3c(n2)C(C)(C)N(c2cnn(CC(F)(F)F)c2)C3=O)cnc1OC |

| Ki | SMILES |
| --- | --- |
| 100 to 490 nM | COc1cc(-c2ccc3c(c2)CN(c2cnn(CC4COc5ccccc5O4)c2)C3=O)cnc1OC (stereo unspecified) |
| 100 to 490 nM | Cc1cc(-c2cncc(N)c2)nc2c1C(=O)N(c1cnn(CC(F)(F)F)c1)C2 |
| < 100 nM | COc1cc(-c2cc(C)c3c(n2)C2(CC2)N(c2cnn(CC(F)(F)F)c2)C3=O)cnc1OC(C)C |
| < 100 nM | CCOC1(C)c2nc(-c3cnc(OC)c(OC)c3)cc(C)c2C(=O)N1c1cnn(CC(F)(F)F)c1 (stereo unspecified) |
| 100 to 490 nM | COc1cc(-c2ccc3c(n2)CN(c2cnn(CCN4CCOCC4)c2)C3=O)cnc1OC |
| 100 to 490 nM | COc1cncc(-c2cc(C)c3c(n2)C2(CCNCC2)N(c2cnn(CC(F)(F)F)c2)C3=O)c1 |
| < 100 nM | C=C(F)Cn1cc(N2Cc3nc(-c4cnc(OC)c(OC)c4)ccc3C2=O)cn1 |
| < 100 nM | CCc1cc(N2Cc3nc(-c4cnc(OC)c(OC)c4)ccc3C2=O)nn1CC |
| < 100 nM | COc1cc(-c2ccc3c(c2)CN(c2cnn([C@H](C)C#N)c2)C3=O)cnc1OC |
| < 100 nM | COc1cc(-c2cc(C)c3c(n2)C(OCC2CC2)N(c2cnn(CC(F)(F)F)c2)C3=O)cnc1OC (stereo unspecified) |
| 100 to 490 nM | COc1cncc(-c2cc(C)c3c(n2)C(C)(C)N(c2ccn(CC(C)(C)O)n2)C3=O)c1 |
| < 100 nM | COc1cc(-c2cc(C)c3c(n2)CN(c2cncs2)C3=O)cnc1OC |
| < 100 nM | COc1cc(-c2cc(C)c3c(n2)CN(c2cnn(C(C)(C)C#N)c2)C3=O)cnc1OC |
| < 100 nM | Cc1cc(-c2cncc(OC(F)F)c2)nc2c1C(=O)N(c1cncc(CC#N)c1)C2C (stereo unspecified) |
| < 100 nM | CCOc1ncc(-c2cc(C)c3c(n2)CN(c2cc[nH]n2)C3=O)cc1OC |
| 100 to 490 nM | COCCOCCOc1ncc(-c2cc(C)c3c(c2)CN(c2cnn(CC(F)(F)F)c2)C3=O)cc1OC |
| < 100 nM | CCOc1cc(-c2cc(C)c3c(n2)C(C)(C)N(c2cnn(CC(F)(F)F)c2)C3=O)cnc1C |
| < 100 nM | CCNC(=O)c1cncc(-c2cc(C)c3c(n2)C(C)(C)N(c2cnn(CC(F)(F)F)c2)C3=O)c1 |
| < 100 nM | COc1cc(-c2ccc3c(n2)[C@H](N2CCOCC2)N(c2cnn(CC(F)(F)F)c2)C3=O)cnc1OC |
| < 100 nM | COc1cc(-c2cc(C)c3c(n2)CN(c2ccc(OCCCC(F)(F)F)nc2)C3=O)cnc1OC |
| < 100 nM | CCc1cc(-c2cnc(OC)c(OC)c2)nc2c1C(=O)N(c1cnn(CC(F)(F)F)c1)C2(C)C |
| < 100 nM | CCn1nc(N2Cc3nc(-c4cnc(OC)c(OC)c4)ccc3C2=O)cc1COC |
| < 100 nM | COc1cc(-c2cc(C)c3c(n2)C(C)N(c2cnn(C[C@@H](C)O)c2)C3=O)cnc1OC (stereo partly specified) |
| < 100 nM | COc1cc(-c2ccc3c(n2)C(C)N(c2ccn(C[C@@H](C)O)n2)C3=O)cnc1OC (stereo partly specified) |
